Laboratory results reported in patent US12673036B2, “Method of using L-triiodothyronine (T3) for the treatment of tissue hypoxia and sepsis” (UNI-PHARMA KLEON TSETIS PHARMACEUTICAL LABORATORIES S.A., priority 2020, dated 2026).
Like-named read-outs stand apart in the source and are kept apart here.

Columns and labels:
[1] = tested on: xenograft models (non-small cell lung, multiple myeloma, breast, glioblastoma, and ovary); conditions: cited from earlier work
p38 MAPK [2] = conditions: T3 40 μg/L, P<0.05, cited from earlier work
male C57BL/6N mice = assay: Cecal ligation and puncture (CLP) sepsis model; format: in vivo
Protocol: The effect of T3 administration in high dosages in the treatment of tissue hypoxia due to microvascular dysfunction occurring in the myocardium, kidneys and liver is evaluated in a sepsis experimental model using male C57BL/6N mice of 10-12 weeks age. The animal studies were carried out in compliance with all necessary regulations in force.
The simulation of the clinical conditions during sepsis leading to tissue hypoxia and microvascular dysfunction is achieved following the most widely used clinical model of cecal ligation and puncture (CLP). In this experimental model, ligation distal to the ileocecal valve (25% of total cecum length) and perforation by a single 21 G puncture is performed under sevoflurane anesthesia causing leakage of fecal contents into the peritoneum, with subsequent polymicrobial bacteremia and sepsis. The perforation of the cecum allows the release of fecal material into the peritoneal cavity to generate an exacerbated immune response induced by polymicrobial infection. In this model, sepsis causes systemic activation of the inflammatory response, microvascular dysfunction, tissue hypoxia, multi-organ failure, and hemodynamic disorder that results in death as in clinical practice.
The animals are supported by subcutaneous fluid administration every 8 hours and administration of buprenorphine 0.1 mg/kg and paracetamol 300 mg/kg, as is the case with septic patients in the intensive care unit (ICU). All animals are closely monitored for their clinical status based on a modified score scale known as the Lipopolysaccharide (LPS) Score Sheet.
The animals divide into 2 groups: the first group receives placebo (placebo group) and the second group receives intraperitoneally a dose of 0.3 μg T3/g of body weight, immediately after surgery (group T3). Based on guidelines for converting doses from experimental animals to equivalent doses in humans (Nair, A B and Jacob S. A simple practice guide for dose conversion between animals and humans. I Basic C/in Pharma 2016, 7: 27-31), the dose of 0.3 μg T3/g of body weight, corresponds roughly to intravenous administration of 7 μg T3/Kg body weight, i.e., from 400 to 600 μg T3 for a patient weighing 60-80 Kg. This dose is very high and beyond any T3 treatment in hypothyroid patients. The study is performed in two separate experiments. In the first experimental protocol, the clinical condition of the animals and mortality after 72 hours is examined, while in the second experimental protocol, tissue hypoxia at the cellular level after euthanasia at 18 hours is studied.
Initially, lactate levels in blood samples are measured (using L-lactate assay kit from Sigma-Aldrich, MAK329) as a general indicator of hypoxia, which is also commonly used in clinical practice in patients with sepsis. Furthermore, creatinine levels in blood are measured as an indicator of renal function (using the Mouse Creatinine Kit Cat. 80350, Crystal Chem). Finally, an echocardiographic analysis is performed in order to evaluate the end-diastolic and end-systolic volume, the ejection fraction and the pulse volume according to the Simpson rule.
Echocardiographic analysis was performed after mild anesthesia with sevoflurane (0.8%) and placing the animal in a heated blanket. Echocardiographic images were then taken along the longitudinal and transverse sternal axis with the Vivid 7 version Pro ultrasound system (GE Healthcare, Wauwatosa, Wisconsin), equipped with a 14.0-MHz probe (i13L).
Tissue hypoxia at the cellular level is determined in frozen fixed tissues in 4% paraformaldehyde based on the standard method of pimonidazole administration using the Hypoxyprobe™ Plus kit. Pimonidazole is dissolved and administered intravenously in mice at a dose of 60 mg/kg, 2 hours before euthanasia. After intracardiac infusion with paraformaldehyde, the organs are fixed, removed and dehydrated for 5 days in 30% sucrose solution. […]

p38 MAPK [3] = assay: p38 MAPK activation in isolated rat heart after 4 hours hypoxic perfusion; conditions: after 4 hours of prolonged hypoxic perfusion, p<0.05
Source text: (§1) The isolated rat heart model was used to simulate non-ischemic conditions of tissue hypoxia ex vivo. In this study, rat hearts were only perfused with oxygenated Krebs buffer containing electrolytes and glucose under normothermia. Despite normal perfusion, the organ gradually develops significant dysfunction over hours due to the absence of erythrocytes and hemoglobin that create hypoxic conditions. […] It should be noted that such an increase in LVEDP may lead to pulmonary edema in vivo. Furthermore, the force of contraction was reduced as evident by a 25% decrease in left ventricular developed pressure (LVDP) in Control hearts (FIG. 2).

isolated rat heart = assay: Isolated rat heart, prolonged 4 hour hypoxic perfusion ex vivo
Source text: as §1

sepsis = conditions: rat sepsis models; cited from earlier work
[4] = tested on: patients with non-ST-segment elevation myocardial infarction; conditions: patients with NSTEMI; cited from earlier work
[5] = 18 hours after sepsis induction
[6] = 40 μg/L after first 30 min of hypoxic perfusion, 4 hours

CC(C)(C)Cn1c(N)nc2ccc(-c3[nH]c(C(C)(C)C)nc3-c3ccc(F)cc3)nc21 [Ralimetinib]
antineoplastic activity as a single agent [1]: demonstrated antineoplastic activity

N[C@@H](Cc1cc(I)c(Oc2ccc(O)c(I)c2)c(I)c1)C(=O)O [T3, L-triiodothyronine]
phospho-p38 MAPK levels, less than control (p38 MAPK [2]; after 5 minutes of reperfusion): 2.3 fold | phospho-p38 MAPK levels, less than control (p38 MAPK [2]; after 15 minutes of reperfusion): 2.1 fold | creatinine levels (male C57BL/6N mice; 18 hours after sepsis): did not increase | hepatic tissue hypoxia (pimonidazole) (male C57BL/6N mice; 18 hours after sepsis): statistically significant reduction | renal tissue hypoxia (pimonidazole) in OSOM and ISOM (male C57BL/6N mice; 18 hours after sepsis): significantly reduce | ejection fraction (echocardiography) (male C57BL/6N mice; [5]): within normal range | pulse volume (echocardiography) (male C57BL/6N mice; [5]): within normal range | lactic acid levels in blood (male C57BL/6N mice; 18 hours after sepsis, 0.3 μg T3/g i.p.): decrease | myocardial tissue hypoxia, pimonidazole-positive tissue of the left ventricular total tissue (male C57BL/6N mice; 18 hours, p=0.028 vs placebo): 1.5%±0.5 | lactic acid levels in blood (male C57BL/6N mice; 24 hours after sepsis, 0.3 μg T3/g i.p.): decrease | animals surviving (male C57BL/6N mice; 72 hours after CLP, 0.3 μg T3/g i.p.): up to 20% | heart rate (male C57BL/6N mice; after sepsis induction): within normal range | prevention of p38 MAPK activation (p38 MAPK [3]): 3 fold | diastolic dysfunction (isolated rat heart; [6]): attenuated diastolic dysfunction | left ventricular end-diastolic pressure (LVEDP) (isolated rat heart; [6]): maintained LVEDP at normal values | force of contraction (left ventricular developed pressure, LVDP) (isolated rat heart; 40 μg/L, after 4 hours): improved force of contraction | perfusion pressure of coronary vessels (microvascular dysfunction) (isolated rat heart; after 4 hours hypoxic perfusion): lower perfusion pressure | cytokine storm (sepsis): reduce cytokine storm | lung function and surfactant synthesis (sepsis): maintain lung function and surfactant synthesis | survival (sepsis): improve survival

Cc1c(F)cc(C(=O)NC2CC2)cc1-c1ccc(C(=O)NCC(C)(C)C)cn1 [Losmapimod]
myocardial protective effects [4]: presented myocardial protective effects
